We go through 17 molecules from US5164391A, “Hydantoin derivatives for treating complications of diabetes and circulatory diseases” (priority 1989, dated 1992).

The structures appear in SMILES notation. Read-outs that look alike come from different tables or passages of the source. Bounds are passed on as bounds.

One test has as its system left atrium. Nature of the test: Action to heart of guinea pig: left atrium (contraction power). More on the design: species or system Hartley guinea pigs. The conditions noted are these: for Contraction: 10^-5 (M). As to the method:
(§1) Hartley guinea pigs (body weight of 300-400 g) were rendered unconscious by knocking their head and fixed upwardly to exenterate their heart. […] The vessel was previously filled with the Krebs-Henseleit solution and the said mixed gas was continuously fed therein.
(§2) Samples were prepared by separating from a ventricular muscle a right and left atrium, along an auricloventricular furrow or groove from the center-line of the right and left auricles.
The atrium was driven by contacting it with a platinum bipolar electrode attached to the cellfin and by stimulating the same with a rectangular pulse (1 Hz, 1 msec, 10 V). A movement of the sample was recorded by connecting the sample to a recorder through a silk thread and a FD pick-up.

The next test concerns right atrium. Nature of the test: Action to heart of guinea pig: right atrium (pulsations).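 As to Pulsation: Dash means no recognizable influence on pulsation rate.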 Also noted: species or system Hartley guinea pigs. The conditions noted are these: for inhibition at 10 µM / inhibition at 100 µM: Cavia porcellus, read-out: Pulsation. How it is done: as §1, §2
A contraction of the sample, due to a compound to be tested, was recorded through an FD pick-up. Concurrently, pulsations were input to a measuring unit to count and record number of the pulsations.

The next test has as its system platelet. As to the kind of experiment: Inhibition of platelet agglutination (rat PRP). The conditions noted are these: agglutination caused by collagen, read-out: IC50 Collagen. In kind it is cell-based. How it is done:
A blood was taken from a descending aorta of the rat anesthetized with ethyl ether. To the blood, 3.8% aqueous sodium citrate was added by a volume of 1/3 and the resulting solution was centrifuged (1500 rpm) at 4° C. for 10 minutes to obtain a supernatant which was designated as "PRP (platelet rich plasma)". The remaining residue was centrifuged (3000 rpm) at 4° C. for 10 minutes to obtain a supernatant which was designated as "PPP (platelet poor plasma)". A stirrer bar and PRP (267 μl) were inserted in a cell and PPP (more than 300 μl) was charged in another cell. A transmissivity to PRP and PPP was measured and set as "0%" for the former case and as "100%" for the latter case.
After a preincubation for 1 minute, a compound to be tested was added by 3 μl and then an agglutination causing substance (collagen or ADP) was added by 30 μl at a time lapsed of 1 minute from the addition of testing compound. For a control group, 3 μl of dimethylsulfoxide was added, instead of the testing compound. A maximum value in transmissivity change after the addition of agglutination causing substance was determined and made as a platelet agglutination rate (%).

In a further test the test system is thoracic aorta. Nature of the test: Action to the aorta of guinea pig (relaxation of contracted spiral samples). Also noted: species or system Hartley guinea pigs. The conditions noted are these: Cavia porcellus. The text has this: Hartley guinea pigs (body weight of 300-500 g) were rendered unconscious fainted by knocking their head and fixed upwardly. A thoracic aorta was taken out to prepare spiral samples, each having size of about 2×25 mm. The sample was suspended in a Magnus tube under a load of about 1 g and upper end of the sample was connected through a silk thread to a FD pick-up to record a change in isometric tension.
Composition of Krebs-Henseleit solution:
Prior to the experiment, the sample in the Magnus tube was left to stand, as it was, for 60 to 90 minutes and in such period of time, the Krebs-Henseleit solution was exchanged to fresh one at an interval of 20 to 30 minutes.
When the contraction of the sample became constant, the compound to be tested was gradually added in a amount starting at a concentration of 10^-8, to […] to observe the contraction of the sample. Finally, papaverine was added therein, so as to make its final concentration of 2×10^-5 g/ml, to check and record also the relaxing reaction or atony caused by the papaverine.

The target of another test is aldose reductase (Rattus norvegicus, UniProt P07943). As to the kind of experiment: Inhibition to aldose reductase (method of Kador et al). The conditions noted are these: read-out: IC50 (50% Inhibitory Concentration). In kind it is biochemical. From the text:
An ability for reducing or inhibiting activity of aldose reductase was checked, in accordance with the method of Kador et al as described in "Biophys.

Where [1] appears, read: Cavia porcellus, read-out: Contraction.
Setting [2] is: Cavia porcellus, 10^-4 (M), left atrium, 32°±1° C., read-out: Contraction.
[3] abbreviates: 10^-4 (M), right atrium, 32°±1° C.
Where [4] appears, read: 10^-5 (M), right atrium, 32°±1° C.
The mark [5] stands for this setting: contraction by KCl 2.5×10^-2 M, 37° C., read-out: IC50 KCl contraction (50% relaxing).
Setting [6] is: contraction by norepinephrine 10^-6 g/ml, 37° C., read-out: IC50 N.E. contraction (50% relaxing).

Regarding `CC(C)NCC(O)COc1cccc2ccccc12` (stereo not drawn) [A, Propranolol, reference compound], in the test with left atrium (setting [1]), the inhibition at 10 µM was above 20% and the inhibition at 100 µM is above 20%. Besides, in the test with right atrium, the inhibition at 10 µM was above 20% and the inhibition at 100 µM was above 20%.

With `CC(=O)Oc1ccccc1C(=O)O` [Aspirin, reference compound], the IC50 in the test on platelet was determined as 210 µM.

In the case of `CC(C(O)c1ccc(O)cc1)N1CCC(Cc2ccccc2)CC1` (stereo not drawn) [B, Ifenprodil, reference compound], the Contraction entry with left atrium (left atrium, 32°±1° C.) is reported as “-”. For the same molecule, the values for the inhibition at 100 µM in the test on left atrium (setting [2]) and with right atrium (setting [3]) were 10 to 20% and above 20%, respectively. Further, the inhibition at 10 µM with right atrium (setting [4]) is above 20%.

Regarding `COc1cc(/C=C/C(=O)N2CCN(CC(=O)N3CCCC3)CC2)cc(OC)c1OC` [Cinepazide, reference compound], the IC50 with thoracic aorta (read-out: IC50 KCl contraction (50% relaxing)) is 2000 µM; in the test on thoracic aorta (read-out: IC50 N.E. contraction (50% relaxing)) it was 1000 µM.

Turning to `NNC(=O)[C@@H]1C[C@]2(NC(=O)NC2=O)c2cc(F)ccc2O1` [Example 1, (2S,4S)-6-Fluoro-2',5'-dioxospiro[chroman-4,4'-imidazolidine]-2-carbohydrazide], the figures for the IC50 in the test with thoracic aorta (setting [5]), in the test with thoracic aorta (setting [6]) and on aldose reductase were 95 µM, 2 µM and 0.038 µM, respectively.

For the molecule `CNNC(=O)[C@@H]1C[C@]2(NC(=O)NC2=O)c2cc(F)ccc2O1` [Example 2, (2S,4S)-6-Fluoro-2',5'-dioxospiro[chroman-4,4'-imidazolidine]-2-(N'-methyl)carbohydrazide], the IC50 in the test on thoracic aorta (setting [5]) is above 1000 µM; with thoracic aorta (setting [6]), above 1000 µM; on aldose reductase, 0.3 µM.

Regarding `O=C1NC(=O)[C@@]2(C[C@@H](C(=O)NNc3ccccc3)Oc3ccc(F)cc32)N1` [Example 3, (2S,4S)-6-Fluoro-2',5'-dioxospiro[chroman-4,4'-imidazolidine]-2-(N'-phenyl)carbohydrazide], the IC50 in the test with thoracic aorta (setting [5]) turned out to be 30 µM; with thoracic aorta (setting [6]), 0.8 µM; at aldose reductase, 0.022 µM; with platelet it was 140 µM. For the same molecule, the Contraction result in the test with left atrium (left atrium, 32°±1° C.) is “-”. Also, the inhibition at 100 µM in the test with left atrium (setting [2]) is 10 to 20%. Further, the Pulsation entry with right atrium (setting [3]) and with right atrium (setting [4]) was “-” throughout.

Take `O=C1NC(=O)[C@@]2(C[C@@H](C(=O)NNc3ccc(Cl)cc3)Oc3ccc(F)cc32)N1` [Example 4, (2S,4S)-6-Fluoro-2',5'-dioxospiro[chroman-4,4'-imidazolidine]-2-(N'-4-chlorophenyl)carbohydrazide]: the IC50 with thoracic aorta (setting [5]) is above 1000 µM; in the test with thoracic aorta (setting [6]), above 1000 µM; at aldose reductase, 0.026 µM; with platelet it was 180 µM. Also, in the test with left atrium (left atrium, 32°±1° C.), the Contraction result is reported as “-”. Besides, the inhibition at 100 µM in the test on left atrium (setting [2]) and in the test on right atrium (setting [3]) was 10 to 20% in each case. Also, the Pulsation entry in the test on right atrium (setting [4]) is on record as “-”.

For the molecule `COc1ccc(NNC(=O)[C@@H]2C[C@]3(NC(=O)NC3=O)c3cc(F)ccc3O2)cc1` [Example 5, (2S,4S)-6-Fluoro-2',5'-dioxospiro[chroman-4,4'-imidazolidine]-2-(N'-4-methoxyphenyl)carbohydrazide], the IC50 in the test with thoracic aorta (setting [5]) is 5 µM; in the test on thoracic aorta (setting [6]) it was 30 µM; at aldose reductase, 0.044 µM; in the test on platelet, 26 µM. In addition, the Contraction result in the test with left atrium (left atrium, 32°±1° C.) is reported as “-”. Also, in the test on left atrium (setting [2]), the inhibition at 100 µM lay within 10 to 20%. The Pulsation result in the test on right atrium (setting [3]) and in the test with right atrium (setting [4]) was “-” throughout.

Turning to `O=C1NC(=O)[C@@]2(C[C@@H](C(=O)NNc3cccc4ccccc34)Oc3ccc(F)cc32)N1` [Example 6, (2S,4S)-6-Fluoro-2',5'-dioxospiro[chroman-4,4'-imidazolidine]-2-(N'-1-naphthyl)carbohydrazide], the IC50 came out at 0.013 µM on aldose reductase and 230 µM in the test on platelet. In addition, the Contraction result in the test with left atrium (left atrium, 32°±1° C.) is given as “-”. Also, the inhibition at 100 µM with left atrium (setting [2]) and in the test with right atrium (setting [3]) was 10 to 20% each time. For the same molecule, the Pulsation result with right atrium (setting [4]) is “-”.

`O=C1NC(=O)[C@@]2(C[C@@H](C(=O)NO)Oc3ccc(F)cc32)N1` [Example 7, (2S,4S)-6-Fluoro-2',5'-dioxospiro[chroman-4,4'-imidazolidine]-2-hydroxamic acid]: the values for the IC50 with thoracic aorta (setting [5]), in the test on thoracic aorta (setting [6]) and on aldose reductase were above 1000 µM, above 1000 µM and 0.037 µM, respectively.

Turning to `O=C1NC(=O)[C@@]2(C[C@@H](C(=O)NCCN3CCN(CC=Cc4ccccc4)CC3)Oc3ccc(F)cc32)N1` [Example 8, (2S,4S)-N-[2-(4-Cinnamylpiperazin-1-yl)ethyl]-6-fluoro-2',5'-dioxospiro[chroman-4,4'-imidazolidine]-2-carboxamide], the IC50 was above 1000 µM with thoracic aorta (setting [5]), above 1000 µM in the test on thoracic aorta (setting [6]), 0.22 µM on aldose reductase and 250 µM in the test on platelet. Moreover, in the test on left atrium (left atrium, 32°±1° C.), the Contraction entry is recorded as “-”. Further, the inhibition at 100 µM with left atrium (setting [2]) and in the test with right atrium (setting [3]) was 10 to 20% each time. Further, in the test with right atrium (setting [4]), the Pulsation entry is “-”.

For the molecule `COc1ccccc1N1CCN(CCNC(=O)[C@@H]2C[C@]3(NC(=O)NC3=O)c3cc(F)ccc3O2)CC1` [Example 9, (2S,4S)-N-{2-[4-(2-Methoxyphenyl)piperazin-1-yl]ethyl}-6-fluoro-2',5'-dioxospiro[chroman-4,4'-imidazolidine]-2-carboxamide], the IC50 is above 1000 µM in the test with thoracic aorta (setting [5]), above 1000 µM with thoracic aorta (setting [6]), 0.24 µM at aldose reductase and 660 µM in the test on platelet. For the same molecule, in the test on left atrium (left atrium, 32°±1° C.), the Contraction result is on record as “-”. The inhibition at 100 µM in the test with left atrium (setting [2]) was in the range of 10 to 20%. Further, the Pulsation entry in the test with right atrium (setting [3]) and in the test with right atrium (setting [4]) was “-” throughout.

Consider `COc1cc(C=CC(=O)N2CCN(CCNC(=O)[C@@H]3C[C@]4(NC(=O)NC4=O)c4cc(F)ccc4O3)CC2)cc(OC)c1OC` [Example 12, (2S,4S)-N-{2-[4-(3,4,5-Trimethoxycinnamoyl)piperazin-1-yl]ethyl}-6-fluoro-2',5'-dioxospiro[chroman-4,4'-imidazolidine]-2-carboxamide], for which the IC50 in the test on thoracic aorta (setting [5]) amounted to 160 µM; in the test with thoracic aorta (setting [6]), 30 µM; at aldose reductase, 0.15 µM. For the same molecule, the Contraction entry in the test with left atrium (left atrium, 32°±1° C.) is “-”. For the same molecule, the inhibition at 100 µM with left atrium (setting [2]) lay within 10 to 20%. Also, the Pulsation entry with right atrium (setting [3]) and in the test on right atrium (setting [4]) was “-” throughout.

`O=C1NC(=O)[C@@]2(C[C@@H](C(=O)NCCO[N+](=O)[O-])Oc3ccc(F)cc32)N1` [Example 13, (2S, 4S)-N-(2-Nitroxyethyl)-6-fluoro-2',5'-dioxospiro[chroman-4,4'-imidazolidine]-2-carboxamide]: the IC50 in the test with thoracic aorta (setting [5]) came out at 60 µM; with thoracic aorta (setting [6]) it was 20 µM; at aldose reductase it was 0.19 µM; in the test with platelet, 240 µM.

Consider `O=C1NC(=O)[C@@]2(C[C@@H](C(=O)NCCn3ccnc3)Oc3ccc(F)cc32)N1` [Example 14, (2S,4S)-N-{2-[(Imidazol-1-yl)ethyl]}-6-fluoro-2',5'-dioxospiro[chroman-4,4'-imidazolidine]-2-carboxamide], for which the IC50 in the test with thoracic aorta (setting [5]) was above 1000 µM; in the test on thoracic aorta (setting [6]) it was above 1000 µM; on aldose reductase, 0.65 µM.

With `COc1ccc2c(c1)c(CC(=O)O)c(C)n2C(=O)c1ccc(Cl)cc1` [Indomethacin, reference compound], in the test with platelet, the IC50 turned out to be 68 µM.
